Assay results taken from ChEMBL document CHEMBL3507680, “University of Dundee, Gates Library screen for HepG2 cell viability”.

Assay: Human HepG2 cell viability assay in 384 well format
Type: toxicity, cell-based
Design: dose 125 nL, time 70.5 hour; cytotoxicity at 70.5 h: concentration not given beside the values
Details: HepG2 cells, read-out: Inhibition

| Compound | cytotoxicity at 70.5 h [%] |
| --- | --- |
| Cc1c(NC(=O)c2ncn[nH]2)cccc1C(=O)NC(C)(C)C | -12.5 |
| Cc1nc(-c2c(-c3ccccc3)ncn2CCCN2CCOCC2)c[nH]1 | -8.17 |
| Cc1ccc(C(=O)NC2CCN(C)CC2)cc1N(C)S(C)(=O)=O | -6.98 |
| COc1ccccc1Oc1ncccc1CNC(=O)[C@@H](N)CCO | 8.7 |
| CCCn1ncc(-c2ccnc(N[C@@H]3C[C@@H]4CC[C@H]3C4)n2)c1C | -2.1 |
| CC(=O)c1cnc(NCC2OCCc3ccccc32)nc1C (stereo not drawn) | -9.22 |
| CC(c1ccncn1)N(C)Cc1cc(O)c2cc(F)ccc2n1 (stereo not drawn) | -8.14 |
| COCCN1C(=O)[C@H]2CC[C@@H]1CN(c1nccc(C)n1)C2 | -9.1 |
| CC(C(N)=O)N1CCc2onc(-c3cccc(F)c3)c2C1 (stereo not drawn) | -12.5 |
| CNc1ncc(C(=O)N2CCCC(CO)(CCCOC)C2)cn1 (stereo not drawn) | 4.14 |
| COc1ccc(C)cc1NC(=O)c1coc(C)n1 | -5.37 |
| C=C(C)COc1cccc(C(=O)NCCCc2nnn[nH]2)c1 | -12.4 |
| COc1cc(C)cc(C(C(=O)O)N(C)Cc2cnn(C)c2)c1OC (stereo not drawn) | 4.79 |
| Cc1cnc(NCCCN2CCc3ccccc32)nc1 | -3.85 |
| O=C1N(c2ccccc2)Cc2n[nH]c(=O)n21 | -0.951 |
| Cc1ccc(C(=O)NCCC2CCN(C)CC2)cc1N(C)S(C)(=O)=O | 24 |
| CN(C)[C@H]1CCCCN(C(=O)c2cccc(N3CCS(=O)(=O)CC3)c2)C1 | -8.16 |
| CC(C)n1cc(CN(Cc2ccc(F)cc2)CC2CCCO2)cn1 (stereo not drawn) | 15.6 |
| Cc1cnn(CCCN2C(=O)CCc3ccccc32)c1 | 11.4 |
| OC1(c2cn(CC3CCN(C4CCSC4)CC3)nn2)CCCC1 (stereo not drawn) | 1.14 |

| Compound | cytotoxicity at 70.5 h [%] |
| --- | --- |
| COCc1ncc(CN(Cc2ccncc2)Cc2ccc(C)s2)cn1 | -6.86 |
| COc1cccc(C(=O)Nc2ccc(OC3CCN(C)CC3)cc2)c1 | -4.5 |
| CCN1CCN(S(=O)(=O)c2ccc(Cc3cc(C)n[nH]c3=O)cc2)CC1 | -10.8 |
| O=C1N(c2ccc(F)cc2)Cc2n[nH]c(=O)n21 | -2.51 |
| CC1CCN(CCCNC(=O)c2ccc(N(C)S(C)(=O)=O)cc2Cl)CC1 | -4.93 |
| COCCCn1cnnc1C(C)NC(=O)c1[nH]c2ccc(C)cc2c1C (stereo not drawn) | -4.22 |
| CCCS(=O)(=O)N1CCN(c2cc(-n3ccnc3)nc(C)n2)CC1 | -3.96 |
| CC(=O)c1cc(CN2C[C@H]3CC[C@@H]2CN(Cc2c(C)noc2C)C3)cs1 | -8.51 |
| CCSc1nsc(NC(=O)COc2ccc3c(c2)OCO3)n1 | -8.05 |
| CN(C)S(=O)(=O)N1CC[C@]2(O)CCN(c3ncccn3)C[C@@H]2C1 | -9.31 |
| O=C(Cc1n[nH]c(-c2cncc(Br)c2)n1)NCc1ccccn1 | -8.81 |
| Cc1ccc2c(C(=O)N(C)C)cc(-c3cnn(CCO)c3)nc2c1C | -3.4 |
| CCOCCC(=O)N1CCCC(CO)(CC2CC2)C1 (stereo not drawn) | -11 |
| Cc1ccc2[nH]c(=O)cc(C(=O)NCCCn3nccc3C3CC3)c2c1 | -16 |
| COC[C@]1(O)CCN(c2cc(N3CCOCC3)ncn2)CC1(C)C | -9.52 |
| O[C@H]1[C@H](n2cc(CN3CCCC3)nn2)c2ccccc2C12CCNCC2 | -7.31 |
| COc1ccccc1C(=O)Nc1ccc(OC2CCN(C)CC2)cc1 | -6.64 |
| O=c1[nH]c(NC2CCCC2)nc2nccc(-c3ccco3)c12 | -8.71 |
| CCCc1nc(C(=O)N[C@H]2COC[C@@H]2N2CCN(C)CC2)cs1 | -7.8 |
| CN1CC(c2n[nH]c(=O)n2-c2cccc(Cl)c2)CC1=O (stereo not drawn) | -12.8 |

| Compound | cytotoxicity at 70.5 h [%] |
| --- | --- |
| Cc1cc(C)cc(S(=O)(=O)NCC2CNCCOC2)c1 (stereo not drawn) | -1.55 |
| O=C(O)CSc1nnc(-c2cn[nH]c2)n1-c1ccccc1Cl | 17.6 |
| CC(=O)NCCOc1cccc(Br)c1 | 2.45 |
| COC(=O)c1cc2c(=O)[nH]c(=O)n(CCc3ccccc3)c2nc1C | 4.39 |
| CCC(Oc1ccc(N(C)S(C)(=O)=O)cc1)C(=O)NC (stereo not drawn) | -1.39 |
| CSc1nccc(N2C[C@@H](CN3CCCCC3)[C@@H](CO)C2)n1 | 27.1 |
| Cc1cccc(C2CC(=O)Nc3c2c(=O)[nH]n3C(C)C)c1 (stereo not drawn) | -11.1 |
| O=C(NCCNc1cc(N2CCCC2)ncn1)c1cnccn1 | -7.66 |
| CCC(=O)NC(C)c1ccccc1C (stereo not drawn) | 0.0127 |
| C[C@@H]1CN(CCC(=O)N(C)Cc2ccccc2)CC[C@@]1(O)C1CCC1 | 21.4 |
| CS(=O)(=O)N1CCN(c2ccnc(N3CCCCC3)n2)CC1 | -6.15 |
| Cc1nc2nc(C)c3c(=O)n(-c4ccn[nH]4)ccc3n2n1 | 10.9 |
| NC(=O)c1ccc(OCCCN2CCC3(CC2)OCCCC3O)cc1 (stereo not drawn) | -1.53 |
| CCC(C)c1ccc(NC(=O)C2CCN(C(=O)N(C)C)CC2)cc1 (stereo not drawn) | -4.2 |
| Cc1onc(N)c1S(=O)(=O)N1CCCCC1C (stereo not drawn) | -2.67 |
| Cc1cccnc1CN(C)C(C(=O)O)c1ccc(-n2cccn2)cc1 (stereo not drawn) | -2.91 |
| Nc1ccc(C(=O)N2CCCC(C(=O)CCc3ccccc3)C2)cn1 (stereo not drawn) | -20 |
| CC(C)(C)c1cn(CC2CCCN(c3cnc4ccccc4n3)C2)nn1 (stereo not drawn) | 0.262 |
